Laboratory results published in a melting point compilation (Tetko et al.; mined from patent text by program, amines drawn as free bases though some values may be those of a salt).

Row | Compound | melting point [°C]
1 | COC(=O)c1cc2cc(CBr)ccc2s1 | 108 to 110
2 | Cc1ccc(C(=NO)C(F)(F)F)cc1 | 54 to 68
3 | COc1c(NC(=O)c2ccc(C)c(-n3cc(C(=O)NCC4CCN(C)CC4)nn3)c2)cc(C(C)(C)C)cc1NS(C)(=O)=O | 202 to 203
4 | CNC(=O)C(N)C(N)=O (stereo not given) | 121 to 122
5 | COc1ccc(S(=O)(=O)C2(C(=O)NO)CCN(C(C)(C)C)CC2)cc1 | 40
6 | COC(=O)c1cc(N2CCNC2=O)c2cc(Cc3ccc(F)cc3)cnc2c1O | 248 to 250
7 | COc1cc(OC)c(C2=NC(NC(=O)c3cc4ccccc4[nH]3)C(=O)N(C)c3ccccc32)c(OC)c1 (stereo not given) | 297
8 | CCOC(=O)c1nc2c(=O)[nH]c3cc(C(F)(F)F)ccc3n2c1CNc1ccc2c(c1)OCO2 | > 250
9 | Cn1cncc1C(O)(c1ccc(Cl)cc1)c1ccc2c(c1)C(c1cccc(Cl)c1)SCc1nnnn1-2 (stereo not given) | 217
10 | O=C(C=P(c1ccccc1)(c1ccccc1)c1ccccc1)CCCCO | 121 to 124
11 | OCCNc1c(Br)cnc2cc(Cl)ccc12 | 169 to 170
12 | CCOC(=O)Cc1cnc(C(C)(C)C)nc1Cl | 42 to 44
13 | C=C1CCc2c(c3ccccc3n2C)C1=O | 127 to 129
14 | CC(C)(C)OC(=O)c1cn(-c2ccc(Cl)cc2)c(-c2ccc(Cl)cc2Cl)n1 | 179 to 181
15 | NC(=O)C1CCC(=O)N1CC#CCN1CCCCC1 (stereo not given) | 143 to 145
16 | C=C1c2cc(C(=O)O)ccc2CCC1n1ccnc1 (stereo not given) | 227 to 229
17 | CC1(C)COc2ccc(OS(C)(=O)=O)cc21 | 75 to 77
18 | Cn1cnc2ccc(-c3nnc(CCc4cccc(F)c4)o3)cc21 | 145 to 146
19 | Cc1ccc(Oc2c(-c3ccc(S(C)(=O)=O)cc3)oc(C(F)F)cc2=O)cc1 | 160
20 | CCCCC1CCC2(C)C(=CCC3C4CCC(=O)C4(C)CCC32)C1 (stereo not given) | 84 to 86
21 | O=C(NCc1c(F)cccc1F)c1[nH]c2ccc(Cl)cc2c1S(=O)(=O)c1ccccc1 | 274 to 280
22 | O=c1n(CCCF)nnn1-c1ccc([N+](=O)[O-])cc1F | 86 to 89
23 | CN1C[C@H](CN2CCN(C(c3ccccc3)c3ccccc3)CC2)C=C2c3cccc4[nH]c(Cl)c(c34)C[C@H]21 | 208
24 | CC(C)(C)OC(=O)N1CCC(C(=O)Nc2ccccc2Oc2ccc(OC(F)(F)F)cc2)CC1 | 45 to 48
25 | Oc1ccc2c(-c3ccc(F)cc3F)noc2c1Cl | 186 to 190
26 | CC(C)NCC1COC(=O)C1(c1ccccc1)c1ccccc1 (stereo not given) | 78 to 80
27 | CNC(=CC#N)c1ccc2ccccc2c1 | 138
28 | Cc1c2c(c(C#N)c(=O)n1C)-c1ccccc1C2=O | 271 to 274

Row | Compound | melting point [°C]
29 | CS(=O)(=O)OC[C@@H]1CCC(=O)N1 | 72 to 74
30 | CCC(=O)c1ccc(CCN(C(C)=O)S(=O)(=O)c2ccc(Cl)cc2)cc1 | 91 to 92
31 | COC(=O)CSC(c1ccccc1)(c1ccccc1)c1ccccc1 | 111 to 115
32 | COCc1ccc(CC(C)NCC(O)c2ccc(O)c(CO)c2)cc1 (stereo not given) | 81 to 92
33 | CCC(=O)N(C)c1cccc(-c2ccc3nnc(NC)n3n2)c1 | 212 to 213
34 | CCOC(=O)c1cn(C(C)(C)C)c2nc(NC(=O)c3ccc(C)cc3)sc12 | 200 to 201
35 | COc1ccc(C2COc3ccc(-c4nnc(C)o4)cc32)cc1 (stereo not given) | 117 to 118
36 | CCCc1nn(-c2ccc(C(F)(F)F)cn2)cc1CCCOc1cc(CC(=O)O)ccc1OCC | 124 to 125
37 | COc1c(Cl)ccc(-c2nc(C(=O)OC(C)C)c(Cl)c(N)c2F)c1F | 109 to 111
38 | Cc1ccc(C(=O)c2ccc(C(=O)c3ccc(C)cc3)cc2)cc1 | 178 to 187
39 | CCCC1=C(C#N)C(c2ccccc2Cl)c2c(n[nH]c2-c2cccs2)N1 (stereo not given) | 256
40 | COc1ccc(N2C(=O)C(C)(C)N(c3ccc(Oc4ccccc4)cc3)C2=S)cc1 | 144
41 | c1ccc(-c2nn3c(c2-c2cncc4cccnc24)CCC3)nc1 | 180 to 184
42 | COC(=O)C1=C(OS(=O)(=O)c2ccc([N+](=O)[O-])cc2)C(=O)O[C@@H]1C | 123 to 124
43 | CCn1c(=O)n(OCc2ccccc2)c(=O)c2cc(F)c(N3CCN(C)CC3)cc21 | 134 to 136
44 | Cc1cnoc1-c1ccc2c(c1)c1cc(-c3ccc(Cl)cc3Cl)c(=O)n(C)c1n2C | 233 to 234
45 | O=c1c2cnn(CC3CO3)c2ncn1CC1CO1 (stereo not given) | 90 to 95
46 | Cc1[nH]c2ccc(F)cc2c1C(=O)Nc1ccc(N2CCC(O)CC2)c(C#N)c1 | 169 to 171
47 | COC1(c2ccc(N(C)C)cc2)OC(=O)c2ccccc21 (stereo not given) | 112 to 114
48 | CCN(CC)CCn1nc2c3c(c(N)ccc31)Oc1ccccc1-2 | 78 to 80
49 | CCOC(=O)c1ccc(NCCOc2ccc(Br)cc2)cc1 | 128 to 133
50 | COc1cc2c(c3c1OC(C)(C)C3)C(c1cccc(C(=O)Nc3c(Cl)cncc3Cl)c1)=NC(C)(C)C2 | 227 to 228
51 | CN(C)Cc1ccc(CNCCN2CCNC2=C(C#N)C#N)o1 | 159 to 160
52 | O=c1c2ccc(Cl)cc2cc2n1CCCS2 | 109 to 110
53 | COc1ccc2c(c1)nc(Cn1ccnc1)n2-c1ccccc1 | 104 to 106
54 | OCCn1ccc(NC(=S)NCC(F)(F)F)n1 | 145 to 146
55 | CC(CCC(=O)OC1CCCCC1)C1CC=C2C3=C(CCC21C)C1(C)CCC(O)C(C)(C)C1CC3 (stereo not given) | 130 to 132

More lines, now with the values ahead:

Row | melting point [°C] | Compound
56 | 260 to 262 | CNS(=O)(=O)c1ccc(-c2cccc3nc(Nc4cc(OC)c(OC)c(OC)c4)oc23)cc1
57 | 186 to 187 | CC(C)(C)c1cc(CCc2ccccc2NC(=O)NC2CCCC2)cc(C(C)(C)C)c1O
58 | 141 to 142 | CCCOc1ccccc1-c1nc2nc(N(CC)CCO)ncc2c(=O)[nH]1
59 | 68 to 70 | CNCCCN1CCc2cc(OC)c(OC)cc2CC1=O
60 | 275 to 276 | N#Cc1ccc(C=Cc2cc(=O)c3cc(Br)ccc3o2)cc1
61 | 160 to 162 | NC(=O)c1ccc(-c2ccccc2OCC2CC2)[nH]c1=O
62 | 140 to 143 | CCCC(=O)N(C)c1cccc(-c2ccc3nnc(C)n3n2)c1
63 | 150 to 157 | CC(=O)SCCC(=O)OC(=O)CO
64 | 189 to 190 | CCC(CC)O[C@@H]1C=C(C(=O)O)C[C@H](CC(O)CO)[C@H]1NC(C)=O (stereo not given in full)
65 | 160 to 162 | COC(=O)C1=C(C)OC(OC)(OC)CC1NC(C)=O (stereo not given)
66 | 205 to 210 | O=C1CCC(=O)N1[C@H]1CC[C@H](Nc2nccc(-n3nnc4ccccc43)n2)CC1
67 | 203 to 205 | CCOCc1nc2c(N)nc3ccccc3c2n1CC(C)(C)CS(=O)(=O)NCc1ccc(OC)cc1
68 | 107 to 108 | COc1cc(C=O)ccc1OCC(O)CN1CCC(c2noc3cc(F)ccc23)CC1 (stereo not given)
69 | 134 to 135 | CC(C)N(CCOc1ccc(CC2SC(=O)NC2=O)cc1)C(C)C (stereo not given)
70 | 54 to 55 | CC(C)(C)C(=O)OCOC(=O)COc1ccc(Cc2ccc(Cl)cc2)cc1
71 | 139 | Cc1cc(C)cc(C(=O)N2CCC(N3CCC(=C4c5ccccc5CCn5ccnc54)CC3)CC2Cc2ccccc2)c1 (stereo not given)
72 | 216 to 219 | Nc1cnc(-c2ccc(OCc3ccccc3)c(C34CC5CC(CC(C5)C3)C4)c2)nc1
73 | 92 to 94 | CCOc1nnc(COc2ccc(Oc3cccc(Cl)n3)cc2)s1
74 | 118 | CC(C)(C)OC(=O)N(CC=Cc1ccccc1)S(N)(=O)=O
75 | 286 to 288 | O=C(O)c1cc(C(=O)O)cc(S(=O)(=O)Nc2ccc(F)c(C(F)(F)F)c2)c1
76 | 37 to 38 | COCc1ncnc(Cl)c1C
77 | 109 to 111 | CNC(=O)c1oc(C(C)(C)C)cc1NC(=O)Nc1ccc(F)cc1
78 | 45 to 46 | S=C=Nc1cccc2ccoc12

Row | melting point [°C] | Compound
79 | 227 to 229 | Cc1nnc2ccc(-c3ccc(F)cc3)nn12
80 | 140 to 142 | O=C1Cc2cccc(OCc3ccccc3)c2N1
81 | 158 to 159 | Cc1nc(N2CCc3ccccc3CC2)c(C#N)c(=O)n1CC=C(F)F
82 | 100 to 102 | CNC(=O)[C@H](CCCCNC(=O)OCc1ccccc1)NC(=O)OC(C)(C)C
83 | 195 to 198 | N#Cc1ccc2nc(C(=O)NCc3cccc(OCCSc4nc[nH]n4)c3)[nH]c(=O)c2c1
84 | 105 to 106 | CCOC(=O)CCn1nc(-c2cc(C(C)(C)C)c(O)c(C(C)(C)C)c2)c2cccnc21
85 | 152 | O=S1(=O)c2cccc3cccc(c23)N1CCN1CCC(CCn2ccc3ccccc32)CC1
86 | 105 to 107 | Nc1ncccc1OCc1ccc(F)cc1F
87 | 234 to 236 | O=c1oc2ccccc2n2cnc(-c3noc(C4CC4)n3)c12
88 | 218 to 220 | Fc1nc(NCc2cccnc2)c2nc[nH]c2n1
89 | 94 to 95 | CC(C)c1c(CO)c(-c2ccc(F)cc2)n2ccccc12
90 | 182 to 183 | COc1cccc2c3c(c(C)nc12)CCN3c1ccccc1C
91 | 56 to 57 | C(=C1CCC2(CC1)OCCO2)c1ccc(OCc2ccccc2)cc1
92 | 171 to 173 | Cc1c[nH]c2ccc(-c3nn(C(C)c4oc5ccccc5c(=O)c4-c4cccc(F)c4)c4ncnc(N)c34)cc12 (stereo not given)
93 | 174 to 176 | Clc1ccc(Nc2nnc(Cc3ccncn3)c3ccccc23)cc1
94 | 138 to 139 | CCOC(OCC)c1ccccc1CN(CCn1ccc2oc(C)cc2c1=O)Cc1ccc2c(c1)N(C)C(=O)C(C)(C)C(=O)N2CC
95 | 206 to 208 | CCC(C)(C)c1cc(-c2cccc(C=C3SC(N4CCOCC4)=NC3=O)c2)cc(F)c1O
96 | 157 | Fc1cccc2c(NCCc3ccc(Oc4cccc(C(F)(F)F)n4)cc3)ccnc12
97 | 94 | CC(=O)N1C(=O)OC[C@H]1c1ccccc1
98 | 116 to 158 | Cc1c(C(N)=O)oc2c(C(=O)NCCCN3CCN(c4cc(Cl)ccc4O)CC3)cccc2c1=O
99 | 270 | CN1CCN(c2cc3c(cc2F)c(=O)c(C(=O)O)cn3CCO)CC1
100 | 159 to 160 | CS(=O)(=O)c1nnc(S(=O)(=O)Cc2ccc(Cl)cc2)s1
